The source of these data is patent US7199113B2, “Pharmaceutically active compounds and methods of use thereof” (priority 1998, dated 2007).

pIC50: −log10 of the molar value. Read-outs that look alike come from different tables or passages of the source.

Holding throughout (type): biochemical
Test [1] deals with T1, human recombinant TF/VIIa complex (lipidated) (Homo sapiens, UniProt P13726).
T1 construct: Truncated recombinant human tissue factor (e.g. composed of 243 amino acids) is expressed in E. coli; host or cells: E. coli (TF)
T1 sequence (P13726 33-275 limits assumed): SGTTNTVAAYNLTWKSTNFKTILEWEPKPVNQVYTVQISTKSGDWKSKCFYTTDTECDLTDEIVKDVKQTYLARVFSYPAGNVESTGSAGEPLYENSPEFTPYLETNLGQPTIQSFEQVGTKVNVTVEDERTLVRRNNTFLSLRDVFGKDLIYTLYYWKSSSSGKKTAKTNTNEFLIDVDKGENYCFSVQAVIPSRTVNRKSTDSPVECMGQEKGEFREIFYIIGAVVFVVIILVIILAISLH
T1 sequence (P08709 61-212 partner limits assumed): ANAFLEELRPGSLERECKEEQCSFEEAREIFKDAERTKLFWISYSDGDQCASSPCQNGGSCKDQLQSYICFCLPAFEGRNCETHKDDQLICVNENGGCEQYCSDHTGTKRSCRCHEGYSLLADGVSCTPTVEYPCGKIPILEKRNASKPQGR
T1 sequence (P08709 213-466 partner limits assumed): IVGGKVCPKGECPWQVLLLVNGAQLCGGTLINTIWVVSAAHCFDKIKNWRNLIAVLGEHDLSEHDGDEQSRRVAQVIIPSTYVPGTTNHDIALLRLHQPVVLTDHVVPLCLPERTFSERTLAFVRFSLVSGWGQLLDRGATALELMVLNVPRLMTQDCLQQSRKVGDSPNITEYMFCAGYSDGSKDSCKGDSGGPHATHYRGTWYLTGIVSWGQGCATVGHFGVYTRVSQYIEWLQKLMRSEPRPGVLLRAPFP
In words: TF/VIIa-dependent FX activation assay. The settings on record: for outcome of primary and secondary screening (TF antagonism): inhibit FX activation at lower concentrations (<0.1 mM) without significant effects on protease activities; for blocking activity in standard assay for TF/VIIa-dependent factor X activation: statement on FIG. 3. On the procedure: A more particular example of the primary screening assay discussed previously is as follows. The assay is standard for measuring TF/VIIa-dependent factor X activation. […] In a more preferred embodiment, the primary screening preferably includes the following steps. • 1) admixing in a suitable assay solution about 0.1 nM of human recombinant TF/VIIa complex (lipidated), about 180 nM human FX, and between from about 0.5 μl to about 10 μl of at least one compound to be tested (optionally dissolved in an appropriate vehicle such as water or dimethylsulfoxide (DMSO)) and incubating the reaction at 37° C. for a few minutes up to about an hour or more, • 2) contacting the solution with a suitable chelating agent such as ethylenediaminietetra acetic acid (EDTA) to reduce or stop factor X activation, • 3) contacting the solution with a detectable amount of a chromogenic substrate specific for FXa (e.g., Spectrozyme FXa or S-2765) and incubating same at 37° C.; and • 4) detecting chromophore produced in the solution as being indicative of the factor X activation.
The primary screening for compounds that inhibit tissue factor/factor VIIa (TF/VIIa) is based on TF/VIIa-dependent FX activation assay (See flow chart in FIG. 1 of the drawings). In this assay, the ability of TF/VIIa complex to activate FX is determined in two discontinuous stages. […] In the second stage (FXa activity assay), EDTA is added at indicated times to the FX activation mixture to chelate calcium, thus leading to the termination of FX→FXa conversion. Calcium is required for TF/VIIa activity. The activity of FXa is then measured by FXa-specific chromogenic substrates such as S-2222, S-2765, or Spectrozyme FXa. In the primary screening, compounds from a previously prepared chemical library are first tested at relatively high concentrations (˜0.833 mM) in TF/VIIa-dependent FX activation assay to identify hits of potential TF pathway antagonists (see FIG. 1). However, it is evident that the inhibition of TF/VIIa-dependent FX activation by a compound in this enzyme-coupled assay can be attributed to effects of the compound on TF/VIIa and/or FXa activities. Thus, secondary screening tests are designed to determine how inhibition takes place and the inhibition mechanism. In secondary screening experiments, effects of those compounds identified from primary screening are tested on catalytic activities of factor VIIa (FVIIa), factor IXa (FIXa), factor Xa (FXa), thrombin, Russell's viper venom (RVV), and trypsin.
Primary screening was done in duplicate in 96-well plates using the TF/VIIa-dependent FX activation assay. All compounds to be screened were dissolved in dimethyl sulfoxide (DMSO), other reagents were prepared or diluted in 25 mM HEPES-NaOH, 5 mM CaCl2, 150 mM NaCl, 0.1% BSA, pH 7.5. For assays where TF was used, purified human recombinant TF (100 nM) was first lipidated with phosphatidylcholine (0.07 mg/ml) and phosphatidylserine (0.03 mg/ml) in 50 mM Tris-HCl, pH 7.5, 0.1% bovine serum albumin (BSA) for 30 minutes at 37° C. A stock solution of TF/VIIa complex was then prepared by combining equal volumes of 100 nM lipidated TF and 100 nM FVIIa The complex was incubated at 37° C. for 30 minutes and then was aliquoted and stored at −70° C. for future uses.
For screening assays, 5 μl of each compound (about 10 mM in DMSO) or DMSO were placed in each well of a 96-well plate, followed by adding 45 μl of TF/VIIa complex (0.1 nM). The components in each well were mixed either with pipette tips or by shaking the plate on a Lab-Line titer plate shaker for 30 seconds. After 15 minutes incubation of the plate at a 37° C., 10 μl of human FX (180 nM) was added to each well and mixed as above. The plate was then incubated at 37° C. for 3 to 15 minutes, followed by addition of 10 μl of EDTA (400 mM in 144 mM HEPES, 864 mM NaCl, 0.576% BSA, pH adjusted to 7.5) to each well to terminate FX activation. […]

Another test addresses T2, thrombin (Homo sapiens, UniProt P00734).
T2 construct: followed by addition of 10 μl of thrombin (20 nM); purchased Enzyme Research Laboratories Inc
Briefly: Thrombin activity assay. The settings on record: statement on Table 1 (FIG. 2(a)). The method, then:
For thrombin activity assay, 55 μl of buffer was mixed with 5 μl of DMSO or compound, followed by addition of 10 μl of thrombin (20 nM). Mix and incubate at 37° C. for 10 minutes. Then 10 μl of substrate S-2238 was added and allowed to incubate at 37° C. for 15–20 minutes. Absorbance at 405 nm was then measured and the percent inhibition of thrombin activity was calculated from OD405 nm values in the absence and presence of a compound.

In test [2] the test system is human plasma (TF-initiated clotting). In words: Prothrombin time (PT) assay. The settings on record: lipidated recombinant tissue factor 1–3 nM, statement on FIG. 4. The method, then: Clot times are generally measured in seconds. Preferred PT assays are typically performed by adding a suitable amount (e.g. about 1 to 3 nM) of lipidated tissue factor to an assay solution that includes conventionally citrated plasma. The PT assay measures TF-mediated blood plasma clot time and is preferably performed by conducting the following steps: • 1) providing about 0.1 ml of citrated human plasma in a suitable assay solution, and combining same with between from about 0.5 μl to 10 μl of at least one compound to be tested (optionally dissolved in vehicle such as water or dimethylsulfoxide (DMSO)) and incubating same at room temperature for about 3 to 10 minutes, • 2) admixing into the solution from between about 0.2 ml (ca. 1–3 nM recombinant human tissue factor) and about 5–10 mM of calcium to initiate plasma clotting; and • 3) measuring the plasma clot time to determine the prothrombin clot time (PT).
The PT assay was performed at 37° C. with an Electra 800 (Medical Automation, Inc.). The PT reaction was initiated by adding 0.2 ml of lipidated recombinant human tissue factor into 0.105 ml of human plasma (Ci-Trol Control Level I, from VWR, Cat. No. 68100-336). […] Following mixing the compound (or DMSO) with plasma (Ci-Trol), 0.2 ml of lipidated reocombinant tissue factor (1–3 nM) is added to the plasma and clotting times were measured within 10 min.

[3] abbreviates: titration, data of Table 3 (FIG. 2(c)), primary screening method, read-out: IC50 (inhibitor concentration at which 50% of TF/VIIa-dependent FX activation is inhibited).

As for `O=P(O)(O)C(CNc1cccc(O)c1)P(=O)(O)O` [Compound 1, 1-(bisphosponate)-2-amino(3-hydroxyphenyl)ethyl], in test [1] (compound preincubated with TF/VIIa 15 minutes at 37° C. prior to FX, FX 30 nM, read-out: IC50, TF/VIIa-dependent FX activation), the pIC50 was 4.90. In addition, in test [1], the “outcome of primary and secondary screening (TF antagonism)” value is reported as “strong TF antagonists”; the “blocking activity in standard assay for TF/VIIa-dependent factor X activation” value is reported as “good blocking activity”. Further, in test [1] (kinetic analysis, FIG. 5), the “effect on apparent Km values for FX substrate” value is recorded as “significantly increased” and the “mode of inhibition of TF/VIIa complex” value is reported as “competitive inhibitor”. The pIC50 in test [1] (setting [3]) was 4.72. In addition, at thrombin, the “inhibition of thrombin activity” value is “do not inhibit thrombin activity”. Moreover, the “effect on TF-initiated PT times (clotting time)” value in test [2] is listed as “prolonged TF-initiated PT times significantly”.

Consider `O=P(O)(O)C(CNc1ccc(O)cc1)P(=O)(O)O` [Compound 2], for which, in test [1], the “outcome of primary and secondary screening (TF antagonism)” value is on record as “strong TF antagonists”; the “blocking activity in standard assay for TF/VIIa-dependent factor X activation” value is “good blocking activity”. Besides, in test [1] (setting [3]), the pIC50 is 5.01. Besides, the “inhibition of thrombin activity” value on thrombin is listed as “do not inhibit thrombin activity”. Also, in test [2], the “effect on TF-initiated PT times (clotting time)” value was “prolonged TF-initiated PT times significantly”.
